For 28 compounds, T/C results are on record in PubChem BioAssay AID330 (DTP/NCI, 2004).

The assay relates to P388 leukemia ip, CD2F1 mice, survival T/C. Description: NCI In Vivo Anticancer Drug Screen. Data for tumor model P388 Leukemia (intraperitoneal) in CD2F1 (CDF1) mice. The settings on record: endpoint: median survival time, higher = longer survival. In a few lines: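 Mice carrying the transplanted tumor received test compound or vehicle. Survival was recorded in each group, and the value is the treated-group measurement divided by that of the vehicle-treated control group.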

[1] abbreviates: dose: 50.0 mg/kg/injection, schedule: Q01DX005 (ip), vehicle: saline.
[2] abbreviates: dose: 25.0 mg/kg/injection, schedule: Q01DX009 (ip), vehicle: saline with Tween-80.
Setting [3] is: dose: 50.0 mg/kg/injection, schedule: Q01DX009 (ip), vehicle: saline with Tween-80.
Where [4] appears, read: dose: 100.0 mg/kg/injection, schedule: Q01DX009 (ip), vehicle: saline with Tween-80.
Setting [5] is: dose: 200.0 mg/kg/injection, schedule: Q01DX009 (ip), vehicle: saline with Tween-80.
Setting [6] is: dose: 50.0 mg/kg/injection, schedule: Q01DX005 (ip), vehicle: Klucel (hydroxypropylcellulose) (HPC).
[7] abbreviates: dose: 100.0 mg/kg/injection, schedule: Q01DX005 (ip), vehicle: Klucel (hydroxypropylcellulose) (HPC).
The mark [8] stands for this setting: dose: 200.0 mg/kg/injection, schedule: Q01DX005 (ip), vehicle: Klucel (hydroxypropylcellulose) (HPC).
[9] abbreviates: dose: 6.25 mg/kg/injection, schedule: Q01DX009 (ip), vehicle: saline with Tween-80.
Setting [10] is: dose: 12.5 mg/kg/injection, schedule: Q01DX009 (ip), vehicle: saline with Tween-80.
Setting [11] is: dose: 60.0 mg/kg/injection, schedule: Q01DX005 (ip), vehicle: saline with Tween-80.
[12] abbreviates: dose: 120.0 mg/kg/injection, schedule: Q01DX005 (ip), vehicle: saline with Tween-80.
Setting [13] is: dose: 240.0 mg/kg/injection, schedule: Q01DX005 (ip), vehicle: saline with Tween-80.
Where [14] appears, read: dose: 50.0 mg/kg/injection, schedule: Q01DX009 (ip), vehicle: Klucel (hydroxypropylcellulose) (HPC).
[15] abbreviates: dose: 100.0 mg/kg/injection, schedule: Q01DX009 (ip), vehicle: Klucel (hydroxypropylcellulose) (HPC).
[16] abbreviates: dose: 200.0 mg/kg/injection, schedule: Q01DX009 (ip), vehicle: Klucel (hydroxypropylcellulose) (HPC).
Setting [17] is: dose: 50.0 mg/kg/injection, schedule: Q01DX005 (ip), vehicle: saline with Tween-80.
Where [18] appears, read: dose: 25.0 mg/kg/injection, schedule: Q01DX005 (ip), vehicle: Klucel (hydroxypropylcellulose) (HPC).

SMILES strings stand for the structures. Toxic doses and inconclusive results are not listed.

For the compound `CCC1(CC2CCCN(C)C2)c2ccccc2Sc2ccccc21` (stereo not given), the T/C (dose: 12.5 mg/kg/injection, schedule: Q01DX005 (ip), vehicle: saline) was 98 % of control; the T/C (dose: 25.0 mg/kg/injection, schedule: Q01DX005 (ip), vehicle: saline) was 98 % of control; the T/C under setting [1] is 91 % of control.

On to `CC(C)(C)OC(=O)NC(Cc1c[nH]c2ccccc12)C(=O)ON1C(=O)CCC1=O` (stereo not given), for which the T/C runs as follows: under setting [2], 97 % of control; under setting [3], 108 % of control; under setting [4], 110 % of control; under setting [5], 105 % of control.

With `CN(C)C1=CC(=S)NC(c2ccccc2)C1` (stereo not given), the T/C is, setting by setting: under setting [6], 103 % of control; under setting [7], 100 % of control; under setting [8], 105 % of control.

As to `CNC(=S)N/N=C/c1ccc([N+](=O)[O-])s1`, the T/C reads like this: under setting [9], 99 % of control; under setting [10], 89 % of control; under setting [2], 88 % of control.

For the compound `C[N+](C)(C)CC(C[N+](C)(C)C)C(=O)c1ccccc1`, the T/C was 107 % of control (dose: 6.25 mg/kg/injection, schedule: Q01DX009 (ip), vehicle: Klucel (hydroxypropylcellulose) (HPC)) and 108 % of control (dose: 12.5 mg/kg/injection, schedule: Q01DX009 (ip), vehicle: Klucel (hydroxypropylcellulose) (HPC)).

Consider `CC1=C(C(=O)Nc2ccccc2C)C(c2ccco2)C(C(=O)Nc2ccccc2C)=C(C)N1`, for which the T/C by setting is: under setting [11], 96 % of control; under setting [12], 94 % of control; under setting [13], 97 % of control.

`NN1C(=O)CCC1=O`: the T/C under setting [3] was 94 % of control, the T/C under setting [4] was 97 % of control and the T/C under setting [5] was 92 % of control.

Turning to `CC1=Nc2ccccc2N(C)/C1=C/C1=CC(=O)c2ccccc2C1=O`, the T/C is, setting by setting: (dose: 100.0 mg/kg/injection, schedule: Q04DX003 (ip), vehicle: saline with Tween-80) 108 % of control; (dose: 200.0 mg/kg/injection, schedule: Q04DX003 (ip), vehicle: saline with Tween-80) 117 % of control.

For the compound `NNc1ncnc2c1ccn2C1OC(CO)C(O)C1O` (stereo not given), the T/C reads like this: under setting [9], 108 % of control; under setting [10], 113 % of control; (dose: 37.5 mg/kg/injection, schedule: Q01DX009 (ip), vehicle: saline with Tween-80) 118 % of control.

With `O=[N+]([O-])c1ccc(/C=C/c2cccs2)c([N+](=O)[O-])c1`, the T/C was 105 % of control under setting [14], 94 % of control under setting [15] and 88 % of control under setting [16].

Take `Cc1nnc2c(NO)nccn12`: the T/C is 99 % of control (dose: 75.0 mg/kg/injection, schedule: Q01DX001 (ip), vehicle: saline); 101 % of control (dose: 150.0 mg/kg/injection, schedule: Q01DX001 (ip), vehicle: saline); 96 % of control (dose: 300.0 mg/kg/injection, schedule: Q01DX001 (ip), vehicle: saline).

For `CS(=O)(=O)/C=C/c1cc2ccccc2[nH]1`, the T/C is 89 % of control under setting [14], 101 % of control under setting [15] and 104 % of control under setting [16].

As to `CCOC(=O)N1C=CC=C(Br)C1C#N` (stereo not given), the T/C under setting [17] is 114 % of control.

Take `COC(=O)C1=C(O)c2cc(C)c(C)c(C#N)c2NC(=O)C1`: the T/C under setting [11] was 95 % of control, the T/C under setting [12] was 97 % of control and the T/C under setting [13] is 93 % of control.

As for `N#C/C(=C\Nc1ccccn1)C(=O)c1ccco1`, the T/C under setting [11] was 91 % of control and the T/C under setting [12] is 100 % of control.

On to `CCOC(=O)C(C(=O)COC)C(=O)OCC`, for which the T/C (dose: 12.5 mg/kg/injection, schedule: Q01DX009 (ip), vehicle: water) is 100 % of control; the T/C (dose: 25.0 mg/kg/injection, schedule: Q01DX009 (ip), vehicle: water) is 99 % of control; the T/C (dose: 50.0 mg/kg/injection, schedule: Q01DX009 (ip), vehicle: water) was 99 % of control; the T/C (dose: 100.0 mg/kg/injection, schedule: Q01DX009 (ip), vehicle: water) is 98 % of control; the T/C (dose: 200.0 mg/kg/injection, schedule: Q01DX009 (ip), vehicle: water) was 97 % of control.

Take `CC(=O)N/N=C1\CCC2CCC1C2` (stereo not given): the T/C was 100 % of control under setting [6], 99 % of control under setting [7] and 96 % of control under setting [8].

On to `C=C1C(=O)O[C@@H]2[C@@H]3O[C@@](C)(CC[C@H](OC(C)=O)[C@@H]3CO)C[C@@H](OC(=O)/C(=C\C)COC(C)=O)[C@@H]12`, for which the T/C under setting [18] was 101 % of control.

In the case of `O=C(CCCCl)NN=C(c1ccccc1)c1ccccc1`, the T/C reads like this: (dose: 42.0 mg/kg/injection, schedule: Q01DX009 (ip), vehicle: saline with Tween-80) 100 % of control; (dose: 84.0 mg/kg/injection, schedule: Q01DX009 (ip), vehicle: saline with Tween-80) 97 % of control; (dose: 168.0 mg/kg/injection, schedule: Q01DX009 (ip), vehicle: saline with Tween-80) 95 % of control.

Turning to `CN1C(=O)/C(=C2\SC(=O)N(CN3CCOCC3)C2=O)c2cc(Br)ccc21`, the T/C under setting [6] was 88 % of control, the T/C under setting [7] is 89 % of control and the T/C under setting [8] is 97 % of control.

Turning to `COC(=O)c1[nH]c(=O)c(C#N)c(C(=O)OC)c1C(=O)c1ccc2ccccc2c1`, the T/C reads like this: (dose: 60.0 mg/kg/injection, schedule: Q01DX005 (ip), vehicle: Klucel (hydroxypropylcellulose) (HPC)) 90 % of control; (dose: 120.0 mg/kg/injection, schedule: Q01DX005 (ip), vehicle: Klucel (hydroxypropylcellulose) (HPC)) 88 % of control; (dose: 240.0 mg/kg/injection, schedule: Q01DX005 (ip), vehicle: Klucel (hydroxypropylcellulose) (HPC)) 97 % of control.

Take `O=C1OC2CCCC2C12C(=O)O[C@@H]1CCC[C@@H]12` (mixture of isomers): the T/C under setting [11] is 97 % of control, the T/C under setting [12] is 99 % of control and the T/C under setting [13] was 99 % of control.

`C=C1C2CC[C@@H]3C45C=NC[C@@](C)(CCC4)[C@@H]5CCC3(C2)[C@@H]1OC(C)=O`: the T/C reads like this: (dose: 4.0 mg/kg/injection, schedule: Q01DX009 (ip), vehicle: Klucel (hydroxypropylcellulose) (HPC)) 94 % of control; (dose: 8.0 mg/kg/injection, schedule: Q01DX009 (ip), vehicle: Klucel (hydroxypropylcellulose) (HPC)) 94 % of control; (dose: 16.0 mg/kg/injection, schedule: Q01DX009 (ip), vehicle: Klucel (hydroxypropylcellulose) (HPC)) 95 % of control; (dose: 32.0 mg/kg/injection, schedule: Q01DX009 (ip), vehicle: Klucel (hydroxypropylcellulose) (HPC)) 96 % of control.

On to `CCOC(=O)C12CCCCC1OC(=N)C2` (stereo not given), for which the T/C runs as follows: (dose: 60.0 mg/kg/injection, schedule: Q01DX005 (ip), vehicle: Klucel + Tween-80) 101 % of control; (dose: 120.0 mg/kg/injection, schedule: Q01DX005 (ip), vehicle: Klucel + Tween-80) 98 % of control; (dose: 240.0 mg/kg/injection, schedule: Q01DX005 (ip), vehicle: Klucel + Tween-80) 99 % of control.

For the compound `C=C1C2(C(=O)O)CCC(C2)C1(C)C` (stereo not given), the T/C is 105 % of control under setting [17]; 101 % of control (dose: 100.0 mg/kg/injection, schedule: Q01DX005 (ip), vehicle: saline with Tween-80); 111 % of control (dose: 200.0 mg/kg/injection, schedule: Q01DX005 (ip), vehicle: saline with Tween-80).

In the case of `C=C1C(=O)OC2/C=C(\C)CC/C=C(/CO)C(OC(=O)C(C)(C)O)C(OC(=O)C(C)C)C12` (stereo not given), the T/C (dose: 5.0 mg/kg/injection, schedule: Q01DX009 (ip), vehicle: other) was 107 % of control.

For `CC(C)C(N)C(=O)NN` (stereo not given), the T/C reads like this: under setting [1], 110 % of control; (dose: 100.0 mg/kg/injection, schedule: Q01DX005 (ip), vehicle: saline) 105 % of control; (dose: 200.0 mg/kg/injection, schedule: Q01DX005 (ip), vehicle: saline) 110 % of control.

With `O[C@@]12CO[C@@H](c3ccc4c(c3)OCO4)[C@@H]1CO[C@H]2c1ccc2c(c1)OCO2`, the T/C reads like this: under setting [18], 92 % of control; under setting [6], 90 % of control; under setting [7], 86 % of control; under setting [8], 95 % of control.
